Molecular target: NaV1.6 (Homo sapiens (Human), UniProt Q9UQD0)
Experiment: Sodium influx assay (ANG2 dye), NaV1.6
Type: cell-based
Settings: Trex HEK293 cells, human α-subunit + β1-subunit; inactivated state; read-out: Flux NaV1.6 IC50

Chain of NaV1.6 (Q9UQD0 whole entry): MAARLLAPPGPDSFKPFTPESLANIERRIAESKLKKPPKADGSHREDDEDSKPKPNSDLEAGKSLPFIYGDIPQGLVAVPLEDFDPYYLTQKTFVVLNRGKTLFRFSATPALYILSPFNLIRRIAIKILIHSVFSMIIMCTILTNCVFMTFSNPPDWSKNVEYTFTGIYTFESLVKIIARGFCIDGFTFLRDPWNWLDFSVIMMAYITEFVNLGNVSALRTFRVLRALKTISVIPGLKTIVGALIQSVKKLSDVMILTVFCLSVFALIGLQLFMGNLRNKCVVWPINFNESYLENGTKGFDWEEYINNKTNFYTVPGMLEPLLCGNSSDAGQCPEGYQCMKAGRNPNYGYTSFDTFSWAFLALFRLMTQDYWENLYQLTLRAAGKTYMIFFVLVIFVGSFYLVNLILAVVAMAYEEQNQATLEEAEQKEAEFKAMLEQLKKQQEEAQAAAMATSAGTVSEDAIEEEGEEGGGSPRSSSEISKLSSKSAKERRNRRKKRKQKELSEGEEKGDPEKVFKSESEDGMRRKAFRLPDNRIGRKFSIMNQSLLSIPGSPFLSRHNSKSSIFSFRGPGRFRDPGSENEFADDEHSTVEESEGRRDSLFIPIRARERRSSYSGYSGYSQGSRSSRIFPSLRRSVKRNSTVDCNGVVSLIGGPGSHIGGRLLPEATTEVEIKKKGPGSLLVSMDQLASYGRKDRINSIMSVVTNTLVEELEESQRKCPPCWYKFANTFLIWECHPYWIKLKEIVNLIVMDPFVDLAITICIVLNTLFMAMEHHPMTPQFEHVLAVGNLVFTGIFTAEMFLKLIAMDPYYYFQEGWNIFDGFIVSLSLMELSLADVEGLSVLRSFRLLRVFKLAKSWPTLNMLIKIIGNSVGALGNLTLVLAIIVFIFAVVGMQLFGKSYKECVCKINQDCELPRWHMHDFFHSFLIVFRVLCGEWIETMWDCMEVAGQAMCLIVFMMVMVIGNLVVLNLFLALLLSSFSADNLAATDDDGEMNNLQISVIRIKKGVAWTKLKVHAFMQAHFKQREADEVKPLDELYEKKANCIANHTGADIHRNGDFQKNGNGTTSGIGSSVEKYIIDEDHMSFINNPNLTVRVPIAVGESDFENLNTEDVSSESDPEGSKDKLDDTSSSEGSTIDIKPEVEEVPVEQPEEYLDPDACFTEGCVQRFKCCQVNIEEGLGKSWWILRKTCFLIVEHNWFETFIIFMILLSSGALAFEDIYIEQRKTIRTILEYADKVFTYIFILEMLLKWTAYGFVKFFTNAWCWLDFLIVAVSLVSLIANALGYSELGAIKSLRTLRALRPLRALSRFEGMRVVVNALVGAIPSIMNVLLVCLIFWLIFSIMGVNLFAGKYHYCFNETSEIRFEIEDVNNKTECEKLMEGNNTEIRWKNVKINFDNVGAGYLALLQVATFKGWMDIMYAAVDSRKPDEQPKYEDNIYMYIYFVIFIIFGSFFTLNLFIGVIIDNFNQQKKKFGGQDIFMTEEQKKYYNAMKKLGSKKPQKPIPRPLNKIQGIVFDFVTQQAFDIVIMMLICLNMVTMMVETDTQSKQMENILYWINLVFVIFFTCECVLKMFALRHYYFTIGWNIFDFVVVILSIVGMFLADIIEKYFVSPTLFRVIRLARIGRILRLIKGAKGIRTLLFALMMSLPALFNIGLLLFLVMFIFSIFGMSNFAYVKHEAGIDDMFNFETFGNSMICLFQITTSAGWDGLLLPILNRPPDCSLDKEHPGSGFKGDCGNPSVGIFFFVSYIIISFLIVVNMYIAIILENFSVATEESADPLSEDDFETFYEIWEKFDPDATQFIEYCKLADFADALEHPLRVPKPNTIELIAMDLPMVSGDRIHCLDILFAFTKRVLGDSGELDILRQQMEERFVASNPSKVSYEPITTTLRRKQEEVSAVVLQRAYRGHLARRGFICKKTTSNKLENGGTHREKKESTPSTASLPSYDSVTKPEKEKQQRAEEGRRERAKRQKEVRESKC
Chain of NaV1.6 (Q07699 19-218 partner): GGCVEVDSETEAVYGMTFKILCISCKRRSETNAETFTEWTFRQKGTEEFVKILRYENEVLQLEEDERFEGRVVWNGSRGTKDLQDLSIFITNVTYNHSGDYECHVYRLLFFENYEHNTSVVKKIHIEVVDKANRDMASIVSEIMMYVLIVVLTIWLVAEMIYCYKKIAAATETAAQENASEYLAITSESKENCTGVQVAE

IC50: 272 nM
SMILES: Cc1cc(S(=O)(=O)Nc2cscn2)c(F)cc1N(C)[C@H]1CCN(Cc2ccccc2)C1 [Compound 1, (S)-4-((1-benzylpyrrolidin-3-yl)(methyl)amino)-2-fluoro-5-methyl-N-(thiazol-4-yl)benzenesulfonamide]

Reference: patent US20250333404A1, “DEUTERATED COMPOUNDS” (Neurocrine Biosciences, Inc., priority 2022, published 2025)
